Tests used:
[1] = male, SCID, mouse, in vivo, ip, 250 mg/kg, 6 h
binding of ER to ELK1 = test: SPR competition: inhibition of binding of ER (analyte) to immobilized ELK1; conditions: ER 200 nM, compound 0-32 uM
Description: A fixed concentration of ER (200 nM) was combined with 5,3′-Dihydroxyflavone diluted in a series (0, 1, 2,4, 8, 16, and 32 uM).
A fixed concentration of ER (200 nM) was combined with 5,3′-Dihydroxyflavone diluted in a series (0, 1, 2, 4, 8, 16, and 32 uM). […] This explains the ability of the compound to inhibit the estrogen-dependent growth of breast cancer cells, as ELK1 is required for estrogen-dependent growth of breast cancer cells.

Full length human AR = target: T1, Full length human AR (Homo sapiens, UniProt P10275); test: Surface plasmon resonance, compound (analyte) binding to immobilized AR; conditions: SPR, compound as analyte
T1 construct: Full length human AR expressed in insect cells; purchased Abcam (Cambridge Mass.) ab82609; host or cells: insect cells
T1 sequence (P10275 1-920): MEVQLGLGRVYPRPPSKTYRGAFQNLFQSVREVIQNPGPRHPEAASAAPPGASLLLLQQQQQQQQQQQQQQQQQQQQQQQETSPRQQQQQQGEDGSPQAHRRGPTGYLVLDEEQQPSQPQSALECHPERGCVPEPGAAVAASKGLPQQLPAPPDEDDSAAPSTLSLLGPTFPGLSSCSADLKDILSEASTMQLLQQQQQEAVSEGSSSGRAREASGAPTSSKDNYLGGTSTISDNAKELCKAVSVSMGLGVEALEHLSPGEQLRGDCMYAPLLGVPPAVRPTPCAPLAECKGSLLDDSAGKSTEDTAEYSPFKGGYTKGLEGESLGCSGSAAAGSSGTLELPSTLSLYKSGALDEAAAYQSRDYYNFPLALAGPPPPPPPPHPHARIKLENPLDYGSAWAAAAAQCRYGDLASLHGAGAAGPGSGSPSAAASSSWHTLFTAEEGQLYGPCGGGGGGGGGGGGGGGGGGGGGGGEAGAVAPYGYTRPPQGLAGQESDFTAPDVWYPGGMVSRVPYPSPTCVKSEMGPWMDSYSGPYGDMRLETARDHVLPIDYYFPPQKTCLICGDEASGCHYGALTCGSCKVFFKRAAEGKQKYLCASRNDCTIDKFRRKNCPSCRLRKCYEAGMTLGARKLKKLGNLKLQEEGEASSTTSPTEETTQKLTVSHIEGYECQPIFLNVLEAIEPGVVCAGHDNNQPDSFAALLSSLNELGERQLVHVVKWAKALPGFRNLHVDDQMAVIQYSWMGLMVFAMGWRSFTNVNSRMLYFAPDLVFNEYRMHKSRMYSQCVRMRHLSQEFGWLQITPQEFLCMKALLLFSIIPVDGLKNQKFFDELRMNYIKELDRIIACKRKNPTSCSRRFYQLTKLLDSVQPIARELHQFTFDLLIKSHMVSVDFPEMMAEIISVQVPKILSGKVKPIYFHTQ
Description: FIG. 2A is a graph showing surface plasmon resonance (SPR) kinetic curves for quantitative analyses of KCI807 binding to AR.
The proteins were eluted with 200 mM imidazole and dialysed against […], pH 7.9 containing 10% glycerol, 20 mM KCl, 2 mM MgCl2, 0.2 mM EDTA, 0.5 mM benzamidine and 0.5 mM DTT.
Amine Coupling Kit, CM5 sensor chip and HBS-N buffer (GE Healthcare) were used for surface plasmon resonance (SPR) analysis. The rate and equilibrium binding constants of the interaction of AR with KCI807 was determined using Biacore 3000 (Biacore, Piscataway, N.J.). […] The immobilization involved activation of carboxymethyl groups on a dextran-coated chip by reaction with N-hydroxysuccinimide, followed by covalent bonding of the ligand (AR) to the chip surface via amide linkages. Reference surfaces were prepared in the same manner but blocked with ethanolamine and thus contained no ligand. […] The interaction (response units, RU) between analyte and ligand was recorded as the ligand RU minus the reference RU. Kinetic values were determined using BIAevaluation software (Biacore), and the data were fitted with the model showing closest match, according to methods described in Drescher DG et al., Methods Mol. Biol., (Clifton, N. J.). […] A 1:1 Langmuir binding model was generally selected, in which all the sensorgrams representing the different analyte concentrations were fitted simultaneously with the wide window of association and dissociation phases. Individual concentration curves were also evaluated to confirm the fitting data. The equilibrium dissociation constant (Kd) was calculated by kd=koff/kon. In all cases, baseline was established in the presence of the vehicle used for the compounds (DMSO) appropriately diluted in BBS-N buffer.

[2] = Body weight and condition of mice in the PDX-PR011 xenograft study; conditions: for % body weight lost/gained: PDX-PR011 study
[3] = Intracellular concentration of compounds by LC-MS/MS (relative stability); type: in vitro ADME; conditions: media concentration of 2 uM compound
Description: The suspended cells were sonicated to cell lysate, and then 1000 μL ethyl acetate was added. The mixture was vortex-mixed for 15 minutes and centrifuged at 14000 rpm at […] for 15 min. 950 uL of the supernatant was transferred to a new 1.7 mL centrifuge tube, and dried under a steam of nitrogen at room temperature. The sample was then reconstituted with 100 μL 40% acetonitrile, and 5 μL was injected into the LC-MS/MS system. Measured concentrations were normalized to cell protein concentrations.

ELK1 = target: T2, ELK1 (Homo sapiens, UniProt P19419); test: Surface plasmon resonance, compound binding to immobilized ELK1; conditions: SPR
T2 construct: His; made in house; host or cells: baculovirus infected Sf9 cells

[4] = Body weight and condition of mice in the 22Rv1 xenograft study; conditions: 22Rv1 study

T2 sequence (P19419 whole entry): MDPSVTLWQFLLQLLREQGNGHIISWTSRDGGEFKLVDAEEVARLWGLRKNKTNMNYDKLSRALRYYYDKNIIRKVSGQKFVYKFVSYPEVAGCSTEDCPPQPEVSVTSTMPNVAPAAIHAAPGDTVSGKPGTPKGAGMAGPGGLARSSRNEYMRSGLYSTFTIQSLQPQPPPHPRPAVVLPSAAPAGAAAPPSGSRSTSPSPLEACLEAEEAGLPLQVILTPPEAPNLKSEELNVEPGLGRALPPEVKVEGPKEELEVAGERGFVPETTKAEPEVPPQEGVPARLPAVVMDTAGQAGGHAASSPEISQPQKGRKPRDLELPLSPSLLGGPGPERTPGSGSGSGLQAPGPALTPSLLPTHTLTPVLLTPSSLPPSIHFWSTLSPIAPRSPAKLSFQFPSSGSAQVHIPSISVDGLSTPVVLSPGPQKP

O=c1cc(-c2cccc(O)c2)oc2cccc(O)c12 [KCI807, 5,3′-dihydroxyflavone]
plasma level of unmetabolized compound (median), Day 11 [1]: 387 nM | plasma level of unmetabolized compound (median), Day 19 [1]: 70 nM | inhibition of binding of ER to immobilized ELK1 (binding of ER to ELK1): inhibits the binding of ER to ELK1 | koff (Full length human AR): 0.00254 s⁻¹ | kon (Full length human AR): 36700 M⁻¹ s⁻¹ | Kd (Full length human AR; kd=koff/kon, read-out: kd (dissociation constant)): 69.2 nM | % body weight lost/gained ([2]; Day 1 after tumor implant): 0% | % body weight lost/gained ([2]; Day 2 after tumor implant): −3.8% | % body weight lost/gained ([2]; Day 3 after tumor implant): −4.6% | % body weight lost/gained ([2]; Day 4 after tumor implant): −2.3% | % body weight lost/gained ([2]; Day 5 after tumor implant): −2.3% | % body weight lost/gained ([2]; Day 6 after tumor implant): −1.5% | % body weight lost/gained ([2]; Day 7 after tumor implant): 0% | % body weight lost/gained ([2]; Day 8 after tumor implant): −1.5% | % body weight lost/gained ([2]; Day 9 after tumor implant): +0.8% | % body weight lost/gained ([2]; Day 10 after tumor implant): +0.8% | % body weight lost/gained ([2]; Day 11 after tumor implant): +1.5% | % body weight lost/gained ([2]; Day 12 after tumor implant): +3.1% | symptoms during the study, PDX-PR011 xenograft ([2]; mouse, in vivo): asymptomatic | weight loss (in words), PDX-PR011 xenograft ([2]; mouse, in vivo): did not show appreciable weight loss | intracellular concentration between 1h and 6h [3]: unchanged | binding to immobilized ELK1 (ELK1): did not bind

CNC(=O)c1ccc(N2C(=S)N(c3ccc(C#N)c(C(F)(F)F)c3)C(=O)C2(C)C)cc1F [enzalutamide]
% body weight lost/gained ([4]; Day 0 after tumor implantation): 0% | % body weight lost/gained ([4]; Day 6 after tumor implantation): +3.7% | % body weight lost/gained ([4]; Day 11 after tumor implantation): +5.5% | % body weight lost/gained ([4]; Day 14 after tumor implantation): +3.7% | % body weight lost/gained ([4]; Day 17 after tumor implantation): +4.6% | % body weight lost/gained ([4]; Day 20 after tumor implantation): +4.6% | % body weight lost/gained ([4]; Day 24 after tumor implantation): +4.6% | % body weight lost/gained ([4]; Day 25 after tumor implantation): +3.7%

Reference: patent US11185527B2, “Methods and compositions relating to steroid hormone receptor-dependent cancers” (Wayne State University, priority 2017, dated 2021)
